Test results taken from patent US20170340693A1, “DISLODGEMENT AND RELEASE OF HSC USING ALPHA 9 INTEGRIN ANTAGONIST AND CXCR4 ANTAGONIST” (COMMONWEALTH SCIENTIFIC AND INDUSTRIAL RESEARCH ORGANISATION, priority 2014, published 2017).

Key:
α4β1 or α9β1 LN18 cells = assay: Association and dissociation (off-rate) kinetics in vitro; type: binding, human
Experimental: Eppendorf vials containing α4β1 or α9β1 LN18 cells (0.5×10^6 cells) were treated with 50 nM of R-BC154 (IXb) (100 μl in TBS-2% FBS containing either 1 mM CaCl2—MgCl2 or 1 mM MnCl2 at 37° C. until for 30 min, washed once with the relevant binding buffer and dry pelleted. The cells were treated with 500 nM of an unlabelled competing inhibitor (100 μl, in TBS-2% FBS containing either 1 mM CaCl2—MgCl2 or 1 mM MnCl2) at 37° C. for the times indicated (0, 2.5, 5, 15, 30, 45, 60 min). The cells were diluted with cold TBS-2% FBS (containing the relevant cations), pelleted by centrifugation, washed once and resuspended (˜200 μl) in binding buffer for flow cytometric analysis. Mean channel fluorescence was plotted against time and the data was fitted to either a one-phase or two-phase exponential decay function using GraphPad Prism 6. The off-rate, koff was extrapolated from the curves.
Eppendorf vials containing α4β1 or α9β1 LN18 cells (0.5×10^6 cells) in 50 μl TBS-2% FBS containing either 1 mM CaCl2—MgCl2 or 1 mM MnCl2 were pre-activated in a heating block for 20 min at 37° C. […] Mean channel fluorescence was plotted against time and the data was fitted to either a one-phase or two phase association function using GraphPad Prism 6. The observed on-rate, kobs was extrapolated from the curves and kon was calculated using […]

[1] = tested on: human BM committed cells, progenitors and HSC of huNSG mice; assay: R-BC154 (IXb) binding to humanized NSG (huNSG) BM; type: cell-based; conditions: Ca2+/Mg2+
Experimental: For in vitro labelling experiments, 5×10^6 BM cells from C57 mice, conditional α4^−/−/α9^−/− mice and humanised NODSCIDIL2Rγ^−/− mice and human cord blood MNCs were treated with R-BC154 (IXb) (up to 300 nM) in PBS (0.5% BSA) or TBS (0.5% BSA) containing either 1 mM CaCl2/MgCl2 (activating) or 10 mM EDTA (deactivating) at 40×10^6 cells/ml for 20 mins at 4° C. Cells were washed with cold PBS (2% FBS) and then immunolabelled as described in “Antibody Cocktails” prior to flow cytometric analysis. For in vivo experiments, C57BL/6 mice, α4^−/−/α9^−/− vav-cre mice and humanised NODSCIDIL2Rγ^−/− mice received either intravenous or subcutaneous injections of R-BC154 (IXb) (5-10 mg/kg) at 100 ul/10 gm mouse weight and analysed as described above.
For the assessment of α9β1 contribution to R-BC154 (IXb) binding, human and murine cells were stained with R-BC154 (100 nM) in the absence of competing antagonist or in the presence of excess amounts of the selective α4β1 antagonist BIO5192 (1 μM) or dual α4β1/α9β1 antagonist BOP (1 μM) in PBS containing 0.5% BSA and 1 mM CaCl2MgCl2 at 0° C. for 30 min. Cells were washed, immunolabelled as described above and analysed by flow cytometry. The contribution of α9β1 binding was calculated by measuring the difference in MFI between R-BC154 (IXb)+BIO5192 and +BOP and expressed as a % of R-BC154 (IXb) alone.

[2] = tested on: bone marrow progenitor cells (LSK) and HSC (LSKSLAM); assay: In vivo bone marrow binding assay; conditions: 10 mg kg−1 intravenously, versus un-injected mice
Experimental: R-BC154 (IXb) in PBS (10 mg kg-1) was injected intravenously into C57 mice. After 5 min, bone marrow cells were isolated as previously described in D. N. Haylock et at Stem Cells, 2007, 25, 1062-1069 and J. Grassinger, et al Cytokine, 2012, 58, 218-225. Briefly, one femur, tibia and iliac crest were excised and cleaned of muscle. After removing the epi- and metaphyseal regions, bones were flushed with PBS-2% FBS to obtain whole bone marrow, which were washed with PBS-2% FBS and then immunolabelled for flow cytometry. For analysis of R-BC154 (IXb) binding, the following antibody combinations were chosen to minimise emission spectra overlap. […]
To assess whether R-BC154 (IXb) and this class of N-phenylsulfonyl proline-based peptidomimetics could bind directly to HSC, R-BC154 (IXb) (10 mg kg^−1) was injected intravenously into mice and analysed for R-BC154 (IXb) labelling of phenotypically defined bone marrow progenitor cells (LSK cell; lineage-Sca-1+c-Kit+) and HSC (LSKSLAM cell; LSKCD48-CD150+) using multi-colour flow cytometry. […] Furthermore, in vivo R-BC154 (IXb) binding was also confirmed by fluorescence microscopy on purified populations of progenitor cells (Lineage-Sca-1+c-Kit+).

α9β1 integrin = α9β1 integrin (Homo sapiens, UniProt P05556+Q13797); assay: In vitro (saturation) binding of R-BC154; design: expressed in transfected cells; host or cells: LN18 (ATCC CRL-2610), retrovirally transduced; endogenous α4 silenced with pSM2c-shITGA4; conditions: in vitro binding data
Sequence of α9β1 integrin (Q13797 30-1035): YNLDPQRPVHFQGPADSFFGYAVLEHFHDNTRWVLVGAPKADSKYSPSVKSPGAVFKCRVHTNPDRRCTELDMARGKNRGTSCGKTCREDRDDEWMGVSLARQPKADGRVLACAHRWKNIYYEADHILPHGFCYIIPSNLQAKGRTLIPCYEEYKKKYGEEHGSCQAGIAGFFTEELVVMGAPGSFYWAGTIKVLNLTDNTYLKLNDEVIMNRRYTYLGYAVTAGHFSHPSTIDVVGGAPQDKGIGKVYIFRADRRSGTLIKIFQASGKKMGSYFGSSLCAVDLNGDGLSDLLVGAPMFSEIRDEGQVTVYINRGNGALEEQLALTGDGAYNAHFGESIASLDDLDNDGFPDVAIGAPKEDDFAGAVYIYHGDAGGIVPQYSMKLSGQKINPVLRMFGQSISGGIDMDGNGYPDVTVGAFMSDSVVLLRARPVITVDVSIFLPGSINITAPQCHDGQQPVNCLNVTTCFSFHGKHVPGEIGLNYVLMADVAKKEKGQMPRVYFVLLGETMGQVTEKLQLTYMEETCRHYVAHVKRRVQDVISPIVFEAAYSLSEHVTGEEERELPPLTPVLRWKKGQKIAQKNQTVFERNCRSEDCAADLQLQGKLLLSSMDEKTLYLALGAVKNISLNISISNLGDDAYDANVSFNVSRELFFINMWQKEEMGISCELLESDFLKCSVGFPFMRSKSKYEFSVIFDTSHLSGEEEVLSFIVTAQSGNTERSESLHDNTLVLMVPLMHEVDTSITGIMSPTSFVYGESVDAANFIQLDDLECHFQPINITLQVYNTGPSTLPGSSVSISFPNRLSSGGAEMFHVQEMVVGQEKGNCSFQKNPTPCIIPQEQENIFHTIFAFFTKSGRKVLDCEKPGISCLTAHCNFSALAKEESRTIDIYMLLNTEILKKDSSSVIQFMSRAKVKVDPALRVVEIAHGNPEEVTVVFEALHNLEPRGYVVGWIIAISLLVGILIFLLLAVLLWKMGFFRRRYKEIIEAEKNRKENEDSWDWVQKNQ
Sequence of α9β1 integrin (P05556 21-798): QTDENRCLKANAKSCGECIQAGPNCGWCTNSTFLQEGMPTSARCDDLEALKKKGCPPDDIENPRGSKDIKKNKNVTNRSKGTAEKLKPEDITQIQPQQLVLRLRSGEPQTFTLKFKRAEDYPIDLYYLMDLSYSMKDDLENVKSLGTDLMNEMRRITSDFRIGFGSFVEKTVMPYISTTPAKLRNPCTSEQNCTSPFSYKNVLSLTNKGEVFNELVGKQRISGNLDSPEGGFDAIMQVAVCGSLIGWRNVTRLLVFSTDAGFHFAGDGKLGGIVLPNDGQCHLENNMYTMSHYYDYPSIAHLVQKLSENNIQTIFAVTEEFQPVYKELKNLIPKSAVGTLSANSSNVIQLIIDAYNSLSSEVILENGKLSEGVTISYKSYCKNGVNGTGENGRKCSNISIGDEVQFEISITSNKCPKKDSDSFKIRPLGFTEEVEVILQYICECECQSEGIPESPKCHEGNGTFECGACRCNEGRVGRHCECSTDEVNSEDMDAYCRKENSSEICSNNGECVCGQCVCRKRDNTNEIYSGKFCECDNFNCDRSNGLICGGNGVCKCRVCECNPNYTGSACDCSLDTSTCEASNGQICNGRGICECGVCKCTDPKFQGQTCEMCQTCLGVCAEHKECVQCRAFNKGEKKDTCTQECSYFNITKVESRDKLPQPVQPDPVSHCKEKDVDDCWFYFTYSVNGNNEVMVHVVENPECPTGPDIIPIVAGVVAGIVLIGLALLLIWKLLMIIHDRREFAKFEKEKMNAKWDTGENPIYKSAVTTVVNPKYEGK
Experimental: Cultured α4β1, α9β1 and control LN18 cells (0.5×10^6 cells) were treated with 100 μl of compound (R-BC154) at 0, 1, 3, 10, 30 and 100 nM in TBS-2% FBS (containing either no cations, 1 mM CaCl2—MgCl2 or 1 mM MnCl2). The cells were incubated at 37° C. for 60 min, washed once with TBS-2% FBS, dry pelleted and resuspended in the relevant binding buffer for flow cytometric analysis. Mean channel fluorescence was plotted against concentration and fitted to a one-site saturation ligand binding curve using GraphPad Prism 6. The dissociation constant, Kd was determined from the curves.

**Q.** Which results are given for `CCN(CC)c1ccc2c(-c3ccc(S(=O)(=O)NCc4cn(C5C[C@@H](C(=O)N[C@@H](Cc6ccc(OC(=O)N7CCCC7)cc6)C(=O)O)N(S(=O)(=O)c6ccccc6)C5)nn4)cc3S(=O)(=O)[O-])c3ccc(=[N+](CC)CC)cc-3oc2c1` (some centres unmarked) [R-BC154 (IXb)]?
**A.** off-rates for α9β1 compared to α4β1 (α4β1 or α9β1 LN18 cells): significantly reduced off-rates; binding affinities relative to BOP (α4β1 or α9β1 LN18 cells; association and dissociation kinetics studies in vitro): lower binding affinities; binding through α9β1 on huNSG BM committed cells, progenitors and HSC [1]: significant binding through α9β1 only occurred on HSC; labelling of BM progenitor cells and HSC after injection [2]: Increased cell-associated fluorescence; affinity for α9β1 integrin (α9β1 integrin): high affinity
